Tested on: 422866-222-R5-J1-PDC complex spheroid viability
Assay: Anticancer human tumor 422866-222-R5-J1-PDC patient-derived pancreatic adenocarcinoma cell line growth inhibition [POLQ]
Conditions: for IC50: curve of first compound; for viability, T/C: stronger effect = lower value
In short: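 Three-cell-type spheroids modelling solid tumor plus stroma served as the readout system; POL inhibitors were tested individually and in combination, concentration ranges set by clinical Cmax where known.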

[1] = second compound 0.0316 µM, first compound 0.0316 µM
[2] = second compound 0.0316 µM, first compound 0.1 µM
[3] = second compound 0.0316 µM, first compound 0.316 µM
[4] = second compound 0.0316 µM, first compound 1 µM
[5] = second compound 0.1 µM, first compound 0.0316 µM
[6] = second compound 0.1 µM, first compound 0.1 µM
[7] = second compound 0.1 µM, first compound 0.316 µM
[8] = second compound 0.1 µM, first compound 1 µM
[9] = second compound 0.316 µM, first compound 0.0316 µM
[10] = second compound 0.316 µM, first compound 0.1 µM
[11] = second compound 0.316 µM, first compound 0.316 µM
[12] = second compound 0.316 µM, first compound 1 µM
[13] = second compound 1 µM, first compound 0.0316 µM
[14] = second compound 1 µM, first compound 0.1 µM
[15] = second compound 1 µM, first compound 0.316 µM
[16] = second compound 1 µM, first compound 1 µM
[17] = second compound 3.16 µM, first compound 0.0316 µM
[18] = second compound 3.16 µM, first compound 0.1 µM
[19] = second compound 3.16 µM, first compound 0.316 µM
[20] = second compound 3.16 µM, first compound 1 µM
[21] = second compound 10 µM, first compound 0.0316 µM
[22] = second compound 10 µM, first compound 0.1 µM
[23] = second compound 10 µM, first compound 0.316 µM
[24] = second compound 10 µM, first compound 1 µM
[25] = second compound 0.0316 µM, first compound 3.16 µM
[26] = second compound 0.0316 µM, first compound 10 µM
[27] = second compound 0.1 µM, first compound 3.16 µM
[28] = second compound 0.1 µM, first compound 10 µM
[29] = second compound 0.316 µM, first compound 3.16 µM
[30] = second compound 0.316 µM, first compound 10 µM
[31] = second compound 1 µM, first compound 3.16 µM
[32] = second compound 1 µM, first compound 10 µM
[33] = second compound 3.16 µM, first compound 3.16 µM
[34] = second compound 3.16 µM, first compound 10 µM
[35] = second compound 10 µM, first compound 3.16 µM
[36] = second compound 10 µM, first compound 10 µM
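Further: spheroids exposed to compounds for one week before readout.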
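Wherever viability, T/C is given: percent of DMSO vehicle wells luminescence so 100% = untreated viability.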

For `C=CCn1c(=O)c2cnc(Nc3ccc(N4CCN(C)CC4)cc3)nc2n1-c1cccc(C(C)(C)O)n1` + Cc1cccc(N(C)C(=O)C2C(O)CCN2c2nc(C)cc(C(F)(F)F)c2C#N)c1, the IC50 (second compound 0.0316 µM) was 298 nM, the IC50 (second compound 0.1 µM) was 289 nM and the IC50 (second compound 0.316 µM) was 299 nM. The IC50 (second compound 1 µM) was 257 nM, the IC50 (second compound 3.16 µM) was 423 nM and the IC50 (second compound 10 µM) was 277 nM. For the same molecule, the viability, T/C (second compound 0.0316 µM, first compound 0.00316 µM) was 107%, the viability, T/C (second compound 0.0316 µM, first compound 0.01 µM) was 96.1% and the viability, T/C [1] was 110%. For the same molecule, the viability, T/C [2] was 89.1%, the viability, T/C [3] was 48.4% and the viability, T/C [4] was 33.3%. It also gave a viability, T/C (second compound 0.1 µM, first compound 0.00316 µM) of 93%, a viability, T/C (second compound 0.1 µM, first compound 0.01 µM) of 93.8% and a viability, T/C [5] of 101%. The viability, T/C [6] was 85.8%, the viability, T/C [7] was 47.1% and the viability, T/C [8] was 35.1%. The viability, T/C (second compound 0.316 µM, first compound 0.00316 µM) was 108%, the viability, T/C (second compound 0.316 µM, first compound 0.01 µM) was 97.3% and the viability, T/C [9] was 105%. The viability, T/C [10] was 97.1%, the viability, T/C [11] was 47.5% and the viability, T/C [12] was 31.3%. For the same molecule, the viability, T/C (second compound 1 µM, first compound 0.00316 µM) was 110%, the viability, T/C (second compound 1 µM, first compound 0.01 µM) was 85.1% and the viability, T/C [13] was 104%. For the same molecule, the viability, T/C [14] was 83.8%, the viability, T/C [15] was 42.8% and the viability, T/C [16] was 32.3%. For the same molecule, the viability, T/C (second compound 3.16 µM, first compound 0.00316 µM) was 98.4%, the viability, T/C (second compound 3.16 µM, first compound 0.01 µM) was 87.2% and the viability, T/C [17] was 91.6%. For the same molecule, the viability, T/C [18] was 100%, the viability, T/C [19] was 54.8% and the viability, T/C [20] was 35.7%. It also gave a viability, T/C (second compound 10 µM, first compound 0.00316 µM) of 104%, a viability, T/C (second compound 10 µM, first compound 0.01 µM) of 95.8% and a viability, T/C [21] of 97.3%. It also gave a viability, T/C [22] of 75.3%, a viability, T/C [23] of 46.6% and a viability, T/C [24] of 40.4%.

With `CC1COCCN1c1cc(-c2ccnn2C)c2ccnc(-c3ccn[nH]3)c2n1` (stereo unspecified) + Cc1cccc(N(C)C(=O)C2C(O)CCN2c2nc(C)cc(C(F)(F)F)c2C#N)c1 the IC50 (second compound 0.0316 µM) was 31.6 nM, the IC50 (second compound 0.1 µM) was > 10000 nM and the IC50 (second compound 0.316 µM) was > 10000 nM. The IC50 (second compound 1 µM) was > 10000 nM, the IC50 (second compound 3.16 µM) was 31.6 nM and the IC50 (second compound 10 µM) was 31.6 nM. The viability, T/C [1] was 82.3%, the viability, T/C [2] was 55.7% and the viability, T/C [3] was 49.3%. It also gave a viability, T/C [4] of 37.8%, a viability, T/C [25] of 72.3% and a viability, T/C [26] of 83.1%. For the same molecule, the viability, T/C [5] was 87%, the viability, T/C [6] was 55.3% and the viability, T/C [7] was 49.1%. It also gave a viability, T/C [8] of 44.5%, a viability, T/C [27] of 65.4% and a viability, T/C [28] of 73%. The viability, T/C [9] was 91.8%, the viability, T/C [10] was 59.6% and the viability, T/C [11] was 43.9%. The viability, T/C [12] was 38.6%, the viability, T/C [29] was 62.4% and the viability, T/C [30] was 79.8%. It also gave a viability, T/C [13] of 77.5%, a viability, T/C [14] of 73.6% and a viability, T/C [15] of 34%. It also gave a viability, T/C [16] of 42.5%, a viability, T/C [31] of 73.7% and a viability, T/C [32] of 73.7%. The viability, T/C [17] was 75.7%, the viability, T/C [18] was 55.8% and the viability, T/C [19] was 49.5%. For the same molecule, the viability, T/C [20] was 43.7%, the viability, T/C [33] was 74.3% and the viability, T/C [34] was 85%. It also gave a viability, T/C [21] of 74.3%, a viability, T/C [22] of 58.2% and a viability, T/C [23] of 46.7%. It also gave a viability, T/C [24] of 36.5%, a viability, T/C [35] of 70.3% and a viability, T/C [36] of 94.8%.

`CC1COCCN1c1cc(C2(S(C)(=N)=O)CC2)nc(-c2ccnc3[nH]ccc23)n1` (stereo unspecified) + Cc1cccc(N(C)C(=O)C2C(O)CCN2c2nc(C)cc(C(F)(F)F)c2C#N)c1 was tested, and the IC50 (second compound 0.0316 µM) was > 10000 nM, the IC50 (second compound 0.1 µM) was 2930 nM and the IC50 (second compound 0.316 µM) was 3360 nM. The IC50 (second compound 1 µM) was 4210 nM, the IC50 (second compound 3.16 µM) was 5460 nM and the IC50 (second compound 10 µM) was 4410 nM. For the same molecule, the viability, T/C [1] was 92.5%, the viability, T/C [2] was 93.2% and the viability, T/C [3] was 98.9%. It also gave a viability, T/C [4] of 70.1%, a viability, T/C [25] of 50.9% and a viability, T/C [26] of 50.5%. For the same molecule, the viability, T/C [5] was 101%, the viability, T/C [6] was 121% and the viability, T/C [7] was 98.9%. For the same molecule, the viability, T/C [8] was 74.4%, the viability, T/C [27] was 45.8% and the viability, T/C [28] was 46.3%. For the same molecule, the viability, T/C [9] was 110%, the viability, T/C [10] was 110% and the viability, T/C [11] was 90.3%. The viability, T/C [12] was 83.2%, the viability, T/C [29] was 47.1% and the viability, T/C [30] was 33.8%. For the same molecule, the viability, T/C [13] was 108%, the viability, T/C [14] was 97.6% and the viability, T/C [15] was 91.5%. For the same molecule, the viability, T/C [16] was 76.8%, the viability, T/C [31] was 47.5% and the viability, T/C [32] was 45.8%. For the same molecule, the viability, T/C [17] was 103%, the viability, T/C [18] was 103% and the viability, T/C [19] was 90.6%. For the same molecule, the viability, T/C [20] was 73.8%, the viability, T/C [33] was 60.4% and the viability, T/C [34] was 40.3%. For the same molecule, the viability, T/C [21] was 100%, the viability, T/C [22] was 82% and the viability, T/C [23] was 93.1%. The viability, T/C [24] was 59.2%, the viability, T/C [35] was 59.5% and the viability, T/C [36] was 37.4%.

Source: PubChem BioAssay AID1963844 (Molecular Pharmacology Branch, DTP, NCI, 2024)
